Measurements taken from BindingDB's records for doi:10.1021/jm00016a010 (University of Innsbruck, 1995).

assay: binding affinity was evaluated by measuring the ability to displace [3H]DPDPE radioligand binding from delta opioid receptor in guinea pig brain membranes

SMILES	Ki [nM]
CCCCOc1c(O)ccc2c1C13CCN(CC4CC4)C(C2)[C@]1(OC)CCC(=O)C3 (stereo not given in full) [3-butoxy-17-cyclopropylmethyl-4-hydroxy-10-methoxy-17-azatetracyclo[7.5.3.01,10.02,7]heptadeca-2(7),3,5-trien-13-one]	42
COc1c(O)ccc2c1C13CCN(CC4CC4)C(C2)[C@]1(OC)CCC(=O)C3 (stereo not given in full) [17-cyclopropylmethyl-4-hydroxy-3,10-dimethoxy-17-azatetracyclo[7.5.3.01,10.02,7]heptadeca-2(7),3,5-trien-13-one]	14
COc1c(O)ccc2c1C13CCN(CC4CC4)C(C2)[C@]1(O)CCC(=O)C3 (stereo not given in full) [17-cyclopropylmethyl-4,10-dihydroxy-3-methoxy-17-azatetracyclo[7.5.3.01,10.02,7]heptadeca-2(7),3,5-trien-13-one]	334
COc1cccc2c1[C@]13CCN(CC4CC4)[C@H](C2)[C@]1(OC)CCC(=O)C3 [Naltrindole analogue]	61
CCO[C@@]12CCC(=O)CC13CCN(CC1CC1)C2Cc1ccc(O)c(OC)c13 (stereo not given in full) [17-cyclopropylmethyl-10-ethoxy-4-hydroxy-3-methoxy-17-azatetracyclo[7.5.3.01,10.02,7]heptadeca-2(7),3,5-trien-13-one]	21
